Two compounds from patent US20040057943A1, “Probiotic strains, a process for the selection of them, compositions thereof, and their use” (priority 2002, published 2004) can be followed below.

This assay concerns Salmonella typhmurium and Escherichia coli. Nature of the assay: Production of antimicrobial metabolites, agar well diffusion assay. Format: cell-based. Conditions: pH 4.5; data not shown. Here is the method:
The probiotic strains of this invention were assessed for their capability to produce antimicrobial metabolites using an agar well diffusion assay. MRS agar plates containing 10^6 cfu/ml of different pathogenic bacteria strain (Salmonella typhmurium and Escherichia coli) were prepared. Wells, with a diameter of 5 mm, where then cut in the agar using a sterile cork-borer. Then, 50 μl of a 2 fold concentrate supernatant of each probiotic strain culture were added to the wells and allowed to diffuse into the agar during a 2 hours preincubation period at 4° C., followed by aerobic incubation of the plates at 37° C. for 16-18 hours. The antimicrobial activity of each supernatant was considered high if the diameter of the inhibition hallo for both pathogenic bacteria strains was >12, moderate between 8 and 12, and slight <8 (FIG. 11)
Moreover, it was also tested if the antimicrobial activity of the supernatants was due to a antimicrobial substance or to the production of metabolic acids. […] It was also tested the antimicrobial capabilities of supernatants obtained from bacterial cultures using glucose or lactose as a carbohydrate source.
A general note: Agar diffusion results depend on both activity and mobility in agar.

`CC(=O)O` [acetic]: the “Inhibitory effect of a dilution of metabolic acid on growth of Salmonella or E. coli” value is recorded as “None of these situations inhibited the growth”. Take `CCCC(=O)O` [butyric, butyric acid]: the “Inhibitory effect of a dilution of metabolic acid on growth of Salmonella or E. coli” value is recorded as “None of these situations inhibited the growth”.
